This is an account of results in patent US11497706B2, “Antiperspirant and deodorant compositions” (The Procter & Gamble Company, priority 2017, dated 2022).

The subject of one assay is C. mucofaciens. Briefly: Tier 1 Anaerobic MIC Assay. It is filed as cell-based, Corynebacterium mucofaciens (clinical isolate). The conditions noted are these: for MIC: Corynebacterium, read-out: microbial inhibition concentration (MIC). An excerpt: (§1) 1. Tier 1 Anaerobic MIC Assay
(§2) The data in Table 2 above was generated with the following test method. The purpose of this assay is to determine if a compound or formulation has an antimicrobial effect in vitro.
(§3) It is understood that when not specifically noted in this procedure: • a) All materials, reagents and equipment required for this procedure are of appropriate design and condition of cleanliness and/or sterility as determined by their intended use. • b) The operator has been trained in aseptic technique and has been qualified to perform the procedure and accurately interpret the results. • c) All media required for this procedure was manufactured by a reputable commercial source egg. Difco, Merck etc. and has been stored and prepared as per manufacturer's instructions. • d) All routine laboratory controls, including but not limited to, media function and growth promotion tests, verification of sterility and use of positive and negative controls are being conducted.
(§4) Procedure: (All Procedures Performed in Anaerobic Chamber Except where Noted)
(§5) Incubator at 37° C.; 20-200 ul channel pipette; 5-50 ul channel pipette; 1250 ul 8 channel Thermo Scientific Matrix pipette; 96 well plate shaker (located in incubator); Beckman Coulter deep well cap mat #267005; Beckman Coulter deep 96 well plates #267007; Falcon 96 well tissue culture plates #353072; Vortexer; Culture tubes/caps Disposable sterile gloves; Sterile petri dishes; Standard microbiological lab equipment (sterile pipettes, syringes, tips, loops, etc.); Glass bottles/flasks for media; Autoclave; Parafilm; Spectrophotometer.
(§6) • 0.9% or 0.85% saline solution • BHI agar supplemented with 1% Tween 80 • BHI media supplemented with 1% Tween 80 3. Microbial Strains
Corynebacterium mucofaciens (clinical isolate)
(§7) Prior to testing streak organisms for isolation on BHI with 1% Tween 80 plates, wrap with parafilm and place in 37° C. incubator. When isolated colonies appear remove one representative colony from each plate and place each in 5 ml of BHI with 1% Tween 80 media. Incubate at 37° C. with shaking overnight. Inoculate 20 ml BHI with 1% Tween 80 (per 96 deep well plate to be tested) with 20 ul of the overnight culture (1-1000 dilution).
(§8) Compounds/formulations to be tested are diluted across a 96 deep well plate as shown below (for a 1% stock solution). 800 ul of 0.85% saline is added to wells A1 and B1 (as these will be the negative and positive control respectively). 800 ul each 1% stock solution+positive control are added to wells C1 through H1. 400 ul 0.85% saline are added to all other wells. 400 ul is then removed from #1 well added to the #2 well and mixed. This is then continued across the plate resulting in a 50% dilution between wells across the plate (this can be easily accomplished with an automatic 8 channel Matrix pipette set to withdraw, dispense and mix).
(§9) In row A of a 96 deep well plate pipette 180 ul of sterile BHI with 1% Tween 80 as a negative growth control. All other wells receive 180 ul of inoculum. From the master plate introduce 20 ul to the corresponding row in the test plate using an 8-channel pipette. Loaded plates are placed on a plate shaker in the 37° C. incubator and incubated overnight. The next day read the O.D. 600 on a plate reader. The MIC is the last well from the right that has no bacterial growth.

The next assay has as its system S. epidermidis. Briefly: Tier 1 Anaerobic MIC Assay. To be noted: for MIC: Staphylococcus epidermidis, read-out: microbial inhibition concentration (MIC). It counts as cell-based, Staphylococcus epidermidis (clinical isolate).
Source text: as §1, §2, §3, §4, §5, §6
Staphylococcus epidermidis (clinical isolate)
as §7, §8, §9

Assay [1] deals with two key underarm bacteria strains. The assay is described as follows: Raw material microbial inhibition, summary in words. It is filed as cell-based. To be noted: C. mucofaciens and S. epidermidis. An excerpt:
The data in Table 2 above was generated with the following test method.

The mark [2] stands for this setting: anaerobic, 37° C. overnight, O.D. 600.

Values after ≈ are worked out from the molar mass of the structure shown. Where a name gives a salt, the structure may show the parent alone. Read-outs that look alike come from different tables or passages of the source. A value given as a limit tells only on which side of the number the result lay.

On to `[Ca+2].[Cl-].[Cl-]` [CaCl], for which the “microbial inhibition concentration (MIC)” value in the assay on C. mucofaciens (setting [2]) and in the assay on S. epidermidis (setting [2]) was >50000 ppm in each case.
For the compound `CCCCC(CC)COCC(O)CO` (stereo not shown) [Ethylhexyl glycerin], the “microbial inhibition concentration (MIC)” value in the assay with C. mucofaciens (setting [2]) and with S. epidermidis (setting [2]) was 12500 ppm throughout.
Turning to `CC(C)=CCCC(C)=CCCC(C)=CCO` [Farnesol], the MIC with C. mucofaciens (setting [2]) is 47500 µg/mL (≈ 214 mM); with S. epidermidis (setting [2]) it was 5940 µg/mL (≈ 26.7 mM).
In the case of `CCCCCCCCC(CO)CCCCCC` (stereo not shown) [Hexyl Decanol], the “microbial inhibition concentration (MIC)” value in the assay on C. mucofaciens (setting [2]) stood at 6062 ppm; in the assay with S. epidermidis (setting [2]) it was 3031 ppm.
For `CCCCCCCCCCCCCC(=O)OC(C)C` [Isopropyl Myristate], the MIC with C. mucofaciens (setting [2]) and in the assay with S. epidermidis (setting [2]) was > 59000 µg/mL in each case.
Regarding `CCCCC/C=C\C/C=C\CCCCCCCC(=O)O` [Linoleic acid], the MIC with C. mucofaciens (setting [2]) and with S. epidermidis (setting [2]) was 3120 µg/mL (≈ 11.1 mM) in each case.
As for `[Cl-].[Na+]` [NaCl], the “microbial inhibition concentration (MIC)” value in the assay with C. mucofaciens (setting [2]) and with S. epidermidis (setting [2]) was >25000 ppm in each case.
On to `C=CC(C)(O)CCC=C(C)CCC=C(C)C` (stereo not shown) [Nerolidol], for which the MIC with C. mucofaciens (setting [2]) and in the assay with S. epidermidis (setting [2]) was > 49000 µg/mL in each case.
For the compound `C/C(=C\CO)CCC[C@H](C)CCC[C@H](C)CCCC(C)C` [Phytol], the MIC in the assay on C. mucofaciens (setting [2]) and in the assay with S. epidermidis (setting [2]) was > 49000 µg/mL in each case.
For `C=CCCCCCCCCC(=O)N[C@@H](Cc1ccccc1)C(=O)O` [Sepiwhite], the “microbial inhibition concentration (MIC)” value is 2000 ppm in the assay on C. mucofaciens (setting [2]) and 1000 ppm in the assay with S. epidermidis (setting [2]). In addition, the “performance against the bacteria as raw materials” value (shortened to “performance against the bacteria”) in assay [1] was “performing well”.
As to `O=C([O-])[O-].[Ca+2]` [calcium carbonate], the “microbial inhibition concentration (MIC)” value in the assay on C. mucofaciens (setting [2]) and in the assay with S. epidermidis (setting [2]) was >2500 ppm each time. For the same compound, the “performance against the bacteria” value in assay [1] is “performing moderately well”.
As to `CC(C)=CCCC(C)=CC=O` [citral], the MIC with C. mucofaciens (setting [2]) and in the assay on S. epidermidis (setting [2]) was 1500 µg/mL (≈ 9.85 mM) throughout. Besides, the “performance against the bacteria” value in assay [1] is reported as “performing well”.
For `COC(=O)CCC(=O)OC` [dimethyl succinate], the MIC in the assay with C. mucofaciens (setting [2]) worked out at 1530 µg/mL; with S. epidermidis (setting [2]), 3060 µg/mL. Moreover, the “performance against the bacteria” value in assay [1] is “performing well”.
In the case of `C=CCc1ccc(O)c(OC)c1` [eugenol], the MIC in the assay with C. mucofaciens (setting [2]) and in the assay with S. epidermidis (setting [2]) was 773 µg/mL (≈ 4.71 mM) throughout. In addition, in assay [1], the “performance against the bacteria” value is on record as “performing well”.
Regarding `N=C(N)c1ccc(OCCCCCCOc2ccc(C(=N)N)cc2)cc1` [hexamidine], the MIC with C. mucofaciens was < 2 µg/mL; in the assay on S. epidermidis, 7 µg/mL (≈ 0.0197 mM).
As to `CC/C=C\C/C=C\C/C=C\CCCCCCCC(=O)O` [linolenic acid], the MIC with C. mucofaciens (setting [2]) and with S. epidermidis (setting [2]) was 1090 µg/mL (≈ 3.93 mM) each time.
With `Cc1cc(CC(C)CC(C)(C)C)n(O)c(=O)c1.NCCO` (stereo not shown) [piroctone olamine, 1-Hydroxy-4-methyl-6-(2,4,4-trimethylpentyl)-2-pyridone monoethanolamine salt, reference compound], the values for the MIC in the assay with C. mucofaciens (setting [2]) and in the assay on S. epidermidis (setting [2]) were < 5 µg/mL and 10 µg/mL, respectively. Also, in assay [1], the “performance against the bacteria” value is “perform particularly well”.
For `CCOC(=O)CC(O)(CC(=O)OCC)C(=O)OCC` [triethyl citrate] the same measures were 1600 µg/mL, 1600 µg/mL and “performing well”.
